Data taken from patent US6818203B2, “Use of perfluoroalkyl-containing metal complexes as contrast media in MR-imaging for visualization of plaque, tumors and necroses” (Schering Aktiengesellschaft, priority 2000, dated 2004).

Experiments:
[1] = in vivo; cited from earlier work
[2] = hydrodynamic micelle diameter (2 Rh) by photon correlation spectroscopy (PCS); format: physicochemical
Excerpt: The amphiphilic compounds according to the invention are combined in solution and are present as aggregates. The size (2 Rh) of such aggregates (e.g., micelles, rods, wafers, etc.) can be determined with the aid of […] (PCS).
As a second criterion, the hydrodynamic micelle diameter 2 Rh, which must be >1 nm, is therefore used. Those perfluoroalkyl-containing metal complexes according to the invention whose 2 RH is ≧3, quite especially preferably >4 nm, are especially suitable.
(§1) Both the determination of the CMC and the photon correlation spectroscopy are described in H.-D. Dörfler, “Grenzflächen- und Kolloidchemie [Interface and Colloid Chemistry],” Weinheim, New York, Basel, Cambridge, Tokyo, VSH 1994.

iliac lymph nodes = assay: lymph node visualization (MRT) after intravenous administration in VX2-tumor-bearing rabbits; format: in vivo; conditions: 200 μmol of Gd/kg i.v.
Protocol: The pictures of FIG. 6 show MR images of an iliac lymph node and of a primary tumor (VX2-tumor implanted i.m.) precontrast, 60 minutes and 20 hours after intravenous administration of 100 μmol of Gd/kg of body weight of metal complex I in rabbits. […] The enhancement in the healthy lymph node tissue was 382% at the time of 15 minutes p.i. and 419% at the time of 60 minutes p.i. […] The ratio of signal intensities of healthy lymph node tissue to metastasis was 3.0 at the time of 15 minutes p.i. and 3.4 at the time of 60 minutes p.i. […] The enhancement in the healthy lymph node tissue was 246% at the time of 15 minutes p.i. and 282% at the time of 60 minutes p.i. […] The ratio of signal intensities of healthy lymph node tissue to metastasis was 2.5 at the time of 15 minutes p.i. and 1.7 at the time of 60 minutes p.i. […] The enhancement in the healthy lymph node tissue was 297% at the time of 10 minutes p.i. and 269% at the time of 60 minutes p.i. […] The ratio of signal intensities of healthy lymph node tissue to metastasis was 5.1 at the time of 10 minutes p.i. and 1.9 at the time of 60 minutes p.i. […] The enhancement in the healthy lymph node tissue was 195% at the time of 15 minutes p.i. and 233% at the time of 60 minutes p.i. […] The ratio of signal intensities of healthy lymph node tissue to metastasis was 1.9 at the time of 15 minutes p.i. and 1.8 at the time of 60 minutes p.i.

[3] = tested on: primary tumor (VX2-tumor implanted i.m.); assay: tumor visualization (MRT) after intravenous administration in VX2-tumor-bearing rabbits; format: in vivo; conditions: 200 μmol of Gd/kg i.v.
Protocol: The pictures of FIG. 6 show MR images of an iliac lymph node and of a primary tumor (VX2-tumor implanted i.m.) precontrast, 60 minutes and 20 hours after intravenous administration of 100 μmol of Gd/kg of body weight of metal complex I in rabbits. […]

myocardial infarction = assay: infarction visualization (MRT) after intravenous administration in rats with acutely induced myocardial infarction; format: in vivo; conditions: 24 hours after i.v. 100 μmol of Gd/kg
Excerpt: The successful induction of an acute myocardial infarction was confirmed by means of NBT-staining.

[4] = critical micelle formation concentration (CMC) by tensiometry; format: physicochemical
Protocol: In aqueous systems, these amphiphilic molecules show the properties that are characteristic of standard surfactants (such as, e.g., sodium dodecylsulfate, SDS). They thus reduce the surface tension of water. By tensiometry, the so-called CMC (critical micelle formation concentration in mol/l) can be determined. In this respect, the surface tension is determined based on the concentration of the substance to be measured. The CMC can be calculated from the plot of the surface tension function (c) that is obtained. The critical micelle formation concentration of the compounds according to the invention must be <10^−3 mol/l, preferably <10^−4 mol/l.
as §1

arteriosclerotic plaque = assay: MRT-visualization of arteriosclerotic plaque after intravenous administration; format: in vivo, Watanabe rabbits
Excerpt: Based on the contrast between the plaque with strong signals and the healthy vessel wall with little or no signals, a diagnosis of the arteriosclerotic vessel wall changes was possible.
The localization of the plaque, especially in aortic arches and in vascular passages, was confirmed by means of Sudan-III-staining.
The localization of the plaque, especially in aortic arches as well as in vascular passages, was confirmed by means of Sudan-III-staining. Then, the MR-imaging of the agar-embedded preparation was again examined with a T1-weighted gradientecho sequence (MPRage; 1.5 T; TR 11.1 ms, TE 4.3 ms, 15° flip angle α; NA: 2; matrix: 213*256) and a spin-echo sequence (1.5 T; TR: 400 ms, TE: 15 ms; NA: 16; matrix: 256*256) (post mortem image).

[5] = proton relaxivity in plasma (R^1), Minispec P 20; format: physicochemical; conditions: 40° C., 0.47 tesla, bovine plasma
Protocol: As a third criterion, the proton-relaxivity in plasma (R^1) at 40° C. and a field strength of 0.47 tesla is used. The relaxivity, which is indicated in [l/mmol·s], is the quantitative measurement for the shortening of relaxation time T^1 of the protons. For the purpose according to the invention, the relaxivity must be as high as possible and >10 l/mmol·s, preferably >13 l/mmol·s, especially preferably >15 l/mmol·s.
Relaxivity R^1 [l/mmol·s] of the MR-contrast media according to the invention was determined with the Minispec P 20 device of the Bruker Company. The measurements were taken at 40° C. and a field strength of 0.47 tesla. Eight measuring points were recorded by each T1-sequence: 180°-TI-90°, inversion recovery. As a medium, bovine plasma of the Kraeber Company was used. The contrast medium concentrations [mmol/l] in the batches were between 0.30 and 1.16.

[6] = 24 hours after contrast medium administration

Structure (SMILES): O=S(=O)([O-])c1ccc(-c2c3nc(c(-c4ccc(S(=O)(=O)[O-])cc4)c4ccc([nH]4)c(-c4ccc(S(=O)(=O)[O-])cc4)c4nc(c(-c5ccc(S(=O)(=O)[O-])cc5)c5ccc2[nH]5)C=C4)C=C3)cc1.[Mn+4] [Mn-TPPS, manganese-5,10,15,20-tetrakis(4-sulfonatophenyl)-porphyrin]
- LD50 [1]: approximately 0.5 mmol/kg
- dose at which an action starts [1]: 0.2 mmol/kg

Structure (SMILES): CC(C(=O)NCC(=O)NCCCC[C@H](NC(=O)CO[C@H]1O[C@H](CO)[C@@H](O)[C@H](O)[C@@H]1O)C(=O)N1CCN(S(=O)(=O)C(F)(F)C(F)(F)C(F)(F)C(F)(F)C(F)(F)C(F)(F)C(F)(F)C(F)(F)F)CC1)N1CCN(CC(=O)[O-])CCN(CC(=O)[O-])CCN(CC(=O)[O-])CC1.[Gd+3] (stereo partly drawn) [metal complex XV, 6-N-[1,4,7-Tris(carboxylatomethyl)-1,4,7,10-tetraazacyclododecane-10-N-(pentanoyl-3-aza-4-oxo-5-methyl-5-yl)]-2-N-[1-O-α-D-carbonylmethyl-mannopyranose]-L-lysine-[1-(4-perfluorooctylsulfonyl)-piperazine]-amide, Gd complex]
- 2 Rh (hydrodynamic micelle diameter) [2]: 4.4 nm
- signal in healthy lymph node tissue (T1-weighted gradient-echo images) (iliac lymph nodes): strong signal rise
- signal in the metastasis, late (iliac lymph nodes; [6]): considerable signal rise
- signal rise in healthy lymph node tissue, late (iliac lymph nodes; [6]): reduced
- signal in zones within the lymph node diagnosed as metastases (confirmed histologically) (iliac lymph nodes; early images): without signal rise
- course of the enhancement of the primary tumor ([3]; 24 hours p.i.): propagates out from the center of the tumor
- enhancement of the primary tumor (especially the periphery) ([3]; immediately after administration): considerable enhancement
- signal in the infarction area (T1-weighted spin-echo images) (myocardial infarction): strong signal rise
- CMC (critical micelle formation concentration) [4]: 2.5e-06 mol/L
- signal in arteriosclerotic plaque (MR images of the aorta) (arteriosclerotic plaque; 35 minutes, 60 minutes and 24 hours after i.v. 10 μmol of Gd/kg): strong signal rise
- signal in the arteriosclerotic plaque (MR images of the aorta) (arteriosclerotic plaque; 24 hours and 48 hours after i.v. 25 μmol of Gd/kg): strong signal rise
- correlation of the aortic sections with strong signal rise and Sudan-III stained plaque (arteriosclerotic plaque; post mortem image of the agar-embedded preparation, 10 μmol of Gd/kg i.v.): excellent correlation
- R^1 Plasma (relaxivity) [5]: 15.9 mmol⁻¹ s⁻¹
